“Also recorded” adds a separate entry of the source.
Assays:
[1] = biological target: hA2AAR; set-up: method as in PMID 19499950, PMID 20036562; conditions: ref [13],[14]; cited from earlier work
[2] = biological target: hA3AR; conditions: ref [13],[14]; cited from earlier work
[3] = biological target: T1, mA1AR (Mus musculus, UniProt Q60612); assay: cAMP functional assay (inhibition of forskolin-stimulated cAMP production), mA1AR in HEK293 cells; format: cell-based
T1 construct: expressed in transfected cells; host or cells: HEK293
T1 sequence (Q60612 1-326): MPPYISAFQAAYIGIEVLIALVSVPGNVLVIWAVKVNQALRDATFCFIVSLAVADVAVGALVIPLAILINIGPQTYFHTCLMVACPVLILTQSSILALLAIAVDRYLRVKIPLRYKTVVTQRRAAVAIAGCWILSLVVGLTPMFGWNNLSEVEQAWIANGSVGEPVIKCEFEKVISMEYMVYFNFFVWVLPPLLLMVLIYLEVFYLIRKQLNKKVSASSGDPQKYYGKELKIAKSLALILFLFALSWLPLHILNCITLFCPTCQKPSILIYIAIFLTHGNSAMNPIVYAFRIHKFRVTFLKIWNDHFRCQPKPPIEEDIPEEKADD
Description: The assays of cAMP (3',5'-cyclic adenosine monophosphate) were performed utilizing a modified protocol published by Nordstedt and colleagues, whereby cAMP content was determined by displacement of [^3H]cAMP binding to regulatory subunits of protein kinase A in bovine adrenal extracts. HEK293 cells heterologously expressing the mA3AR were prepared by plating 2.5 × 10^5 cells per well in 24-well plates and cultured overnight in complete media (DMEM with 10% fetal bovine serum/PenStrep/0.4 mg/mL G418) at 37°C. The cells were washed with DMEM/25 mM HEPES (pH 7.4) followed by incubation in DMEM/25 mM HEPES containing 20 μM Ro 20-1274 (phosphodiesterase inhibitor), 1 U/mL ADA and a combination of two selective A2BAR antagonists (300 nM CVT-6883 and 300 nM PSB603) at 37°C for 15 min. Forskolin (20 μM) to induce cAMP production and the test compounds of interest were then simultaneously added. A concentration range of ligands or dendrimer conjugates was tested in triplicate to inhibit cAMP production via activation of A1 or A3 ARs. […] The lysates were collected and cAMP levels in the acid extract were determined by competitive binding assays as follows. […] The samples were incubated at 4°C for 2.5 hours and harvested through GF/C glass microfiber filters using a cell harvester (Brandel, Gaithersburg, MD) and counted in scintillation cocktail. […]

[4] = test system: isolated mouse hearts; assay: Langendorff-perfused isolated mouse heart model of I/R (wild-type)
Description: MRS5246 and MRS5233 were tested for effects on functional improvement in isolated mouse hearts subjected to global ischemia and reperfusion. The agonists were infused into the coronary circulation of the hearts for 10 min immediately before 20 min of global ischemia. The functional recovery parameters (left ventricular developed pressure [LVDP], rate of contraction [dP/dtmax], rate of relaxation [dP/dtmin], and coronary flow [CF; mL/min/g]) of the hearts were assessed throughout reperfusion and after 45 min of reperfusion and compared to those of control hearts.
Isolated mouse heart experiments were performed as described previously. In brief, hearts were isolated from C57Bl/6J male mice and cannulated via the aorta and perfused in a retrograde fashion by Krebs-Henseleit buffer. Pressure measurements were obtained via a fluid-filled balloon inserted into the left ventricle via the mitral valve and connected to a pressure transducer. The hearts were immersed in warmed perfusion buffer to maintain the hearts at 37°C, and the balloons were inflated to achieve constant end-diastolic pressures of 5 to 10 mm Hg.
The hearts were perfused for 20 min to achieve stabilization and then paced at 420 beats/min for baseline functional measurements. Global ischemia was achieved by closing an in-line stopcock to stop perfusion for 20 min followed by 45 min of reperfusion by re-opening the stopcock. To examine the effect of the ligands and dendrimer conjugates on functional recovery, the hearts were perfused with buffer containing the indicated concentrations of compounds for 10 min immediately before ischemia.
All data are reported as means ± S.E.M. Functional recovery data in the isolated heart studies were analyzed by two-way repeated measures ANOVA. […] Left ventricular functional recoveries at 45 min of reperfusion were compared using one-way analysis of variance followed by Student's t test with the Bonferroni correction or an unpaired Student's t test, as appropriate. P < 0.05 was statistically significant.

[5] = biological target: T2, mA3AR (Mus musculus, UniProt Q61618); assay: cAMP functional assay (inhibition of forskolin-stimulated cAMP production), mA3AR in HEK293 cells; format: cell-based
T2 construct: expressed in transfected cells; host or cells: HEK293
T2 sequence (Q61618 1-319): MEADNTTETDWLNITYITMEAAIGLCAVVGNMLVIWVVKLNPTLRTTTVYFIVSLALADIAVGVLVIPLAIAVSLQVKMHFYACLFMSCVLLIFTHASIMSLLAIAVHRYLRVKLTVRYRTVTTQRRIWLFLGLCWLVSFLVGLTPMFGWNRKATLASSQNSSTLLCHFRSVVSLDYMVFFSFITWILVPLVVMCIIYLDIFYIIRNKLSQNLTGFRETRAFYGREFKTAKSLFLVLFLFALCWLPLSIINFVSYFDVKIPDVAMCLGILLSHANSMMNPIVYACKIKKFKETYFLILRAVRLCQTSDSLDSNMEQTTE
Description: The assays of cAMP (3',5'-cyclic adenosine monophosphate) were performed utilizing a modified protocol published by Nordstedt and colleagues, whereby cAMP content was determined by displacement of [^3H]cAMP binding to regulatory subunits of protein kinase A in bovine adrenal extracts. HEK293 cells heterologously expressing the mA3AR were prepared by plating 2.5 × 10^5 cells per well in 24-well plates and cultured overnight in complete media (DMEM with 10% fetal bovine serum/PenStrep/0.4 mg/mL G418) at 37°C. The cells were washed with DMEM/25 mM HEPES (pH 7.4) followed by incubation in DMEM/25 mM HEPES containing 20 μM Ro 20-1274 (phosphodiesterase inhibitor), 1 U/mL ADA and a combination of two selective A2BAR antagonists (300 nM CVT-6883 and 300 nM PSB603) at 37°C for 15 min. Forskolin (20 μM) to induce cAMP production and the test compounds of interest were then simultaneously added. A concentration range of ligands or dendrimer conjugates was tested in triplicate to inhibit cAMP production via activation of A1 or A3 ARs. After incubation at 37°C for 15 min, the media was aspirated, and the cells were lysed with 200 μL ice cold 0.1 M HCl on a shaker at 4°C for 30 min. The lysates were collected and cAMP levels in the acid extract were determined by competitive binding assays as follows. Each lysate sample and cAMP standard were diluted in 0.1 M HCl and subsequently transferred to polypropylene tubes (100 μL). [^3H]cAMP (12,000 cpm/100 μL water/tube) and protein extract from bovine adrenal tissue were then added (240 μg adrenal protein/tube at a concentration of 0.6 μg/μL, in the binding protein buffer: 100 mM Tris-HCl, 250 mM NaCl, 10 mM EDTA, 0.1% 2-mercaptoethanol, pH 8.0), with the extract isolated from bovine adrenal glands as described by Nordstedt, et al. to provide the cAMP binding substrate. The samples were incubated at 4°C for 2.5 hours and harvested through GF/C glass microfiber filters using a cell harvester (Brandel, Gaithersburg, MD) and counted in scintillation cocktail. […]

[6] = test system: hA1AR; set-up: method as in PMID 19499950, PMID 20036562; conditions: at 10 μM; ref [13],[14]; cited from earlier work
[7] = biological target: T2, mA3AR; assay: Radioligand ([125I]I-AB-MECA) competition binding, mA3AR
Description: (§1) The competition assays were performed as previously published. Briefly, to prepare the membranes, HEK293 cells stably expressing recombinant mARs were harvested and homogenized in 10 mM Na^+-HEPES buffer (pH 7.4) with 10 mM EDTA and 0.1 mM benzamidine. The cell lysates were centrifuged (35,000 × g for 25 min; 4°C), and the pellets were resuspended in 10 mM Na^+-HEPES buffer (pH 7.4) with 1 mM EDTA and 0.1 mM benzamidine. The suspensions were homogenized and centrifuged again (35,000 × g for 25 min; 4°C). The resultant pellets were re-suspended in buffer containing 10% sucrose and stored at -80°C until use. For the radioligand binding assays, 50 μg cell membranes (100 μL) were incubated in 10 mM Na^+-HEPES buffer (pH 7.4) with 5 mM MgCl2, 5 U/mL ADA, and [^125I]I-AB-MECA as radioligand. The competing ligands of interest were added at various concentration ranges. The IC50 values were calculated using nonlinear regression analysis by fitting the data to the following equation: binding=nonspecific binding+total binding-nonspecific binding∕1+10^x-logIC50 Inhibition constant (Ki) values were calculated using the Cheng-Prusoff equation [36]. The concentration of MRS5246 reflected the concentration of the dendrimeric complex, not the individual ligand moieties. Therefore, all binding Ki values of this dendrimer are to be considered as Kiapp values.

[8] = biological target: T1, mA1AR; assay: Radioligand ([125I]I-AB-MECA) competition binding, mA1AR; conditions: recombinant mAR on HEK293 cell membranes, Kiapp for the dendrimer conjugate, read-out: mA1AR, Ki or Kiapp
Description: as §1

activity at the mA1AR in cAMP assay ([3]; at 100 μM): inactive
inhibition of cAMP production at the A1AR ([3]; up to 0.1 mM): lacked inhibition
agonist efficacy in cAMP assay ([5]; HEK293 cells overexpressing recombinant mARs): full agonists
IC50 ([5]; HEK293 cells, forskolin-stimulated): 4 nM
EC50 ([5]; HEK293 cells, forskolin-stimulated, as printed in Figure 3, read-out: EC50, cAMP functional assay, mouse A3AR): 4 ± 0.3 nM
Ki ([7]; [125I]I-AB-MECA, recombinant mAR on HEK293 cell membranes, Kiapp for the dendrimer conjugate, read-out: mA3AR, Ki or Kiapp): 3.94 ± 0.31 nM
fold greater affinity at mA3AR than at hA3AR ([7]; mouse Ki vs reported human Ki): 5.7 fold
Selectivity (A1 /A3) ([7]; mouse receptors, ratio of binding Ki): 169-fold
Ki [8]: 665 ± 70 nM
SMILES: CNC(=O)[C@@]12C[C@@H]1[C@@H](n1cnc3c(NCc4cccc(Cl)c4)nc(C#CCCCCc4cn(CCNC(C)=O)nn4)nc31)[C@H](O)[C@@H]2O [MRS5233]
Ki [1]: 2440 ± 320 nM
Ki [2]: 22.3 ± 1.6 nM
recovery of LVDP throughout reperfusion vs control ([4]; 1 nM): did not; also recorded: trend in improving LVDP over control
recovery of rates of relaxation and contraction at 45 min reperfusion vs control ([4]; 1 nM): significantly better
recovery of LVDP throughout reperfusion vs control ([4]; 10 nM): significant improvement
recovery of rates of relaxation and contraction at 45 min reperfusion vs control ([4]; 10 nM): significantly better
functional recovery after 20 min ischemia/45 min reperfusion compared to control ([4]; 1 and 10 nM (MRS5246 in Figure 6 also 0.1 nM), infused 10 min before ischemia): improved functional recovery compared to control in a concentration-dependent manner; also recorded: effective at increasing functional recovery; also recorded: significant protection starting at one nanomolar
inhibition of radioligand binding at hA1AR [6]: 12 ± 4%

Source: PMC3247180, “Polyamidoamine (PAMAM) dendrimer conjugate specifically activates the A3 adenosine receptor to improve post-ischemic/reperfusion function in isolated mouse hearts” (BMC Pharmacology, 2011)
